Patent publication US20020091273A1, “Method for the regioselective preparation of substituted benzo[g]quinoline3-carbonitriles and benzo[g]quinazolines” (American Home Products Corporation, priority 2000, published 2002)
Counter-ions that a name gives are not always drawn.

Row | SMILES | melting point
1 | COc1cc(CBr)c(Br)cc1OCc1ccccc1 [Example 1, 5-(Benzyloxy)-1-bromo-2-(bromomethyl)-4-methoxybenzene] | 103 to 105 °C
2 | COc1cc(CCC#N)c(Br)cc1OCc1ccccc1 [Example 2, 3-(4-Benzyloxy-2-bromo-5-methoxyphenyl)-propionitrile] | 52 to 53 °C
3 | COc1cc2c(cc1OCc1ccccc1)C(C#N)C2 (centres unmarked) [Example 3, 4-Benzyloxy-3-methoxybicyclo[4.2.0]octa-1,3,5-triene-7-carbonitrile] | 85 °C
4 | COc1cc2c(cc1OCc1ccccc1)C(C#N)(Sc1ccc(Cl)cc1)C2 (centres unmarked) [Example 4, 4-Benzyloxy-7-(4-chloro-phenylsulfanyl)-3-methoxybicyclo [4.2.0]octa-1,3,5-triene-7-carbonitrile] | 114 to 115 °C
5 | COc1cc2c(cc1OCc1ccccc1)C(C#N)(Sc1ccccc1)C2 (centres unmarked) [Example 5, 4-Benzyloxy-3-methoxy-7-phenylsulfanylbicyclo [4.2.0]octa-1,3,5-triene-7-carbonitrile] | 109 to 110 °C
6 | COc1cc2cc(C(=O)OC(C)(C)C)c(N)cc2cc1O [Example 9, 3-Amino-6-hydroxy-7-methoxy-naphthalene-2-carboxylic acid tert-butyl ester] | 262 to 263 °C
7 | COc1cc2cc(C(=O)OC(C)(C)C)c(N)cc2cc1OCCN1CCOCC1 [Example 10, 3-Amino-7-methoxy-6-(2-morpholin-4-yl-ethoxy)-naphthalene-2-carboxylic acid tert-butyl ester] | 125 to 127 °C
8 | COc1cc2cc3c(=O)[nH]cnc3cc2cc1OCCN1CCOCC1 [Example 11, 7-Methoxy-8-(2-morpholin4-yl-ethoxy)-3H-benzo[g]quinazolin-4-one] | 230 to 232 °C
9 | COc1cc2cc3c(=O)c(C#N)c[nH]c3cc2cc1OCCN1CCOCC1 [Example 12, 7-Methoxy-8-(2-morpholin-4-yl-ethoxy)-4-oxo-1,4-dihydrobenzo[g]quinoline-3-carbonitrile] | 275 °C (dec.)
10 | COc1cc2cc3c(=O)c(C#N)c[nH]c3cc2cc1O [Example 13, 8-Hydroxy-7-methoxy-4-oxo-1,4-dihydrobenzo[g]quinoline-3-carbonitrile] | > 300 °C
11 | COc1cc2cc3c(Cl)c(C#N)cnc3cc2cc1O [Example 14, 4-Chloro-8-hydroxy-7-methoxybenzo[g]quinoline-3-carbonitrile] | > 300 °C
12 | COc1cc2cc3c(Cl)ncnc3cc2cc1OCCN1CCOCC1 [Example 31, 4-Chloro-7-methoxy-8-(2-morpholin-4-yl-ethoxy)benzo[g]quinazoline] | 166 to 168 °C

Further lines, results first:

Row | melting point | SMILES
13 | 210 to 225 °C | COc1cc2cc3c(Nc4ccc(Br)cc4F)ncnc3cc2cc1OCCN1CCOCC1 (as salt: hydrochloride) [Example 32, (4-Bromo-2-fluorophenyl)-[7-methoxy-8-(2-morpholin-4-yl-ethoxy)benzo[g]quinazolin4-yl]-amine]
14 | 258 to 260 °C | COc1cc(Nc2ncnc3cc4cc(OCCN5CCOCC5)c(OC)cc4cc23)c(Cl)cc1Cl (as salt: hydrochloride) [Example 33, (2,4-Dichloro-5-methoxyphenyl)-[7-methoxy-8-(2-morpholin-4-yl-ethoxy)benzo[g]-quinazolin-4-yl]-amine]
15 | 179 to 180 °C | COc1cc2cc(C(=O)OC(C)(C)C)c(N)cc2cc1OCc1ccccc1 [Example 7, 3-Amino-6-benzyloxy-7-methoxynaphthalene-2-carboxylic acid tert-butyl ester]
16 | > 300 °C | COc1cc2cc3c(=O)c(C#N)c[nH]c3cc2cc1OCc1ccccc1 [Example 8, 8-Benzyloxy-7-methoxy-4-oxo-1,4-dihydrobenzo[g]quinoline-3-carbonitrile]
17 | > 300 °C | COc1cc2cc3c(Nc4ccc(Sc5nccn5C)c(Cl)c4)c(C#N)cnc3cc2cc1O [Example 15, 4-[3-Chloro-4-(1-methyl-1 H-imidazol-2-ylsulfanyl)phenylamino]-8-hydroxy-7-methoxybenzo[g]quinoline-3-carbonitrile]
18 | > 300 °C | COc1cc2cc3c(Nc4ccc(Sc5nccn5C)c(Cl)c4)c(C#N)cnc3cc2cc1OCCN1CCOCC1 [Example 17, 4-[3-Chloro-4-(1-methyl-1H-imidazol-2-ylsulfanyl)phenylamino]-7-methoxy-8-(2-morpholin-4-yl-ethoxy)benzo[g]quinoline-3-carbonitrile]
19 | 201 to 207 °C | COc1cc2cc3c(Nc4ccc(Sc5nccn5C)c(Cl)c4)c(C#N)cnc3cc2cc1OCCn1ccnn1 [Example 22, 4-[3-Chloro-4-(1-methyl-1H-imidazol-2-ylsulfanyl)phenylamino]-7-methoxy-8-(2-[1,2,3]triazol-1-yl-ethoxy)benzo[g]quinoline-3-carbonitrile]
20 | 220 to 223 °C | COc1cc(Nc2c(C#N)cnc3cc4cc(OCCCCl)c(OC)cc4cc23)c(Cl)cc1Cl [Example 24, 8-(3-Chloropropoxy)-4-(2,4-dichloro-5-methoxyphenylamino)-7-methoxybenzo[g]quinoline-3-carbonitrile]
21 | 205 to 208 °C | COc1cc(Nc2c(C#N)cnc3cc4cc(OCCCN5CCOCC5)c(OC)cc4cc23)c(Cl)cc1Cl [Example 25, 4-(2,4-Dichloro-5-methoxyphenylamino)-7-methoxy-8-(3-morpholin-4-yl-propoxy)benzo[g]quinoline-3-carbonitrile]
22 | 241 to 243 °C | COc1cc2cc(C#N)c(N)cc2cc1OCc1ccccc1 [Example 29, 3-Amino-6-benzyloxy-7-methoxynaphthalene-2-carbonitrile]
23 | 275 to 280 °C | COc1cc(Nc2ncnc3cc4cc(OCc5ccccc5)c(OC)cc4cc23)c(Cl)cc1Cl [Example 30, (8-Benzyloxy-7-methoxybenzo[g]quinazolin-4-yl)-(2,4-dichloro-5-methoxyphenyl)amine]
